In US20070292908A1, “Method for Detecting Streptococcus Agalactiae Using Alpha-Glucosidase Activity” (BIOMERIEUX, priority 2004, published 2007):
Blank lines part the entries; values can stand above or below the compound they belong to.

Tests used:
[1] = system: Streptococcus agalactiae; assay: Detection of Streptococcus agalactiae strains on reaction media containing an α-glucosidase enzymatic substrate; type: cell-based; settings: substrate 0.1 g/l; for intensity (I) of coloration: arbitrary scale 0 to 4
Method: The reaction media were prepared by mixing heart-brain extract (4.84 g/l; Solabia), meat infusion (1.96 g/l; Solabia), biothione (1 g/l; Solabia), biotrypcase (7.2 g/l; Solabia), sodium carbonate (0.3 g/l; VWR), sodium pyruvate (2 g/l; Fluka), HEPES buffer (0.4 g/l; Sigma), lactalbumin peptone (2 g/l; DMV), glucose (1 g/l; Merck), American agar (2 g/l; Sobigel) and European agar (12 g/l; Roko).
The media were then poured into a Petri dish for subsequent inoculation with bacterial strains.
Eight Streptococcus agalactiae strains derived from the applicant's collection, suspended in physiological saline, were inoculated so as to give isolated colonies on each of the media. The dishes were then incubated at 37° C. for 48 hours. The colonies formed are examined visually after 18, 24 and more than 40 hours of incubation. The coloration of these colonies, the growth and also the intensity of this coloration were noted.
The results are given in table 1 below and are expressed: • in terms of growth (G) with the size being indicated in mm, • in terms of intensity (1) of coloration based on an arbitrary scale ranging from 0 to 4, 0 corresponding to an absence of activity and 4 corresponding to the presence of a very intense coloration, • in terms of color (Co) with T=turquoise, R=pink or red, Gr=green, Mg=magenta, • according to the incubation time in hours (T).

[2] = system: Streptococcus agalactiae; assay: Number of strains detected as a function of the concentration of α-glucosidase substrate; type: cell-based; settings: positive when I≧0.6, 8 strains
From the text: The above protocol was repeated, with the exception that the concentration of enzymatic substrate was varied.
Table 2 below gives the number of strains detected (considered to be positive when I≧0.6) as a function of the concentration of substrate.

[3] = strain 0008200, 18 h incubation
[4] = strain 0008200, 24 h incubation
[5] = strain 0008200, >40 h incubation
[6] = strain 0008206, 18 h incubation
[7] = strain 0008206, 24 h incubation
[8] = strain 0008206, >40 h incubation
[9] = strain 0101060, 18 h incubation
[10] = strain 0101060, 24 h incubation
[11] = strain 0101060, >40 h incubation
[12] = strain 7611003, 18 h incubation
[13] = strain 7611003, 24 h incubation
[14] = strain 7611003, >40 h incubation
[15] = strain 7701031, 18 h incubation
[16] = strain 7701031, 24 h incubation
[17] = strain 7701031, >40 h incubation
[18] = strain 7702055, 18 h incubation
[19] = strain 7702055, 24 h incubation
[20] = strain 7702055, >40 h incubation
[21] = strain 8709013, 18 h incubation
[22] = strain 8709013, 24 h incubation
[23] = strain 8709013, >40 h incubation
[24] = strain 8904053, 18 h incubation
[25] = strain 8904053, 24 h incubation
[26] = strain 8904053, >40 h incubation
[27] = substrate 100 mg/l, incubation 24 h
[28] = substrate 100 mg/l, incubation 48 h
[29] = substrate 200 mg/l, incubation 24 h
[30] = substrate 200 mg/l, incubation 48 h
[31] = substrate 300 mg/l, incubation 24 h
[32] = substrate 300 mg/l, incubation 48 h

intensity (I) of coloration ([1]; strain 0008200, 18 h): 0.1
growth (G), size [1, 3]: 0.5 mm
intensity (I) of coloration ([1]; strain 0008200, 24 h): 0.3
growth (G), size [1, 4]: 0.5 mm
intensity (I) of coloration ([1]; strain 0008200, >40 h): 0.5
growth (G), size [1, 5]: 0.5 mm
intensity (I) of coloration ([1]; strain 0008206, 18 h): 0.1
growth (G), size [1, 6]: 0.7 mm
intensity (I) of coloration ([1]; strain 0008206, 24 h): 0.3
growth (G), size [1, 7]: 0.8 mm
intensity (I) of coloration ([1]; strain 0008206, >40 h): 0.8
growth (G), size [1, 8]: 1.2 mm
intensity (I) of coloration ([1]; strain 0101060, 18 h): 0.3
growth (G), size [1, 9]: 0.5 mm
intensity (I) of coloration ([1]; strain 0101060, 24 h): 0.6
growth (G), size [1, 10]: 0.7 mm
intensity (I) of coloration ([1]; strain 0101060, >40 h): 2.3
growth (G), size [1, 11]: 0.8 mm
intensity (I) of coloration ([1]; strain 7611003, 18 h): 0.3
growth (G), size [1, 12]: 1 mm
intensity (I) of coloration ([1]; strain 7611003, 24 h): 0.6
growth (G), size [1, 13]: 1.3 mm
intensity (I) of coloration ([1]; strain 7611003, >40 h): 1.3
growth (G), size [1, 14]: 1.7 mm
growth (G), size [1, 15]: 0.5 mm
growth (G), size [1, 16]: 0.7 mm
intensity (I) of coloration ([1]; strain 7701031, >40 h): 0.5
growth (G), size [1, 17]: 1.2 mm
intensity (I) of coloration ([1]; strain 7702055, 18 h): 0.1
growth (G), size [1, 18]: 0.7 mm
intensity (I) of coloration ([1]; strain 7702055, 24 h): 0.1
growth (G), size [1, 19]: 1 mm
intensity (I) of coloration ([1]; strain 7702055, >40 h): 1
growth (G), size [1, 20]: 1.7 mm
growth (G), size [1, 21]: 0.4 mm
growth (G), size [1, 22]: 0.5 mm
intensity (I) of coloration ([1]; strain 8709013, >40 h): 0.5
growth (G), size [1, 23]: 0.7 mm
intensity (I) of coloration ([1]; strain 8904053, 18 h): 0.1
growth (G), size [1, 24]: 0.7 mm
intensity (I) of coloration ([1]; strain 8904053, 24 h): 0.3
growth (G), size [1, 25]: 0.7 mm
intensity (I) of coloration ([1]; strain 8904053, >40 h): 1
growth (G), size [1, 26]: 0.8 mm
number of strains detected [2, 27]: 1/8
number of strains detected [2, 28]: 7/8
number of strains detected [2, 29]: 3/8
number of strains detected [2, 30]: 8/8
number of strains detected [2, 31]: 6/8
number of strains detected [2, 32]: 8/8
Compound: OC[C@H]1O[C@H](Oc2c[nH]c3cc(Cl)ccc23)[C@H](O)[C@@H](O)[C@@H]1O [Rose-alpha-Glu, 6-chloro-3-indolyl-α-D-glucopyranoside]

Compound: 5-bromo-6-chloro-3-indolyl-α-D-glucopyranoside [Magenta-alpha-Glu]
intensity (I) of coloration ([1]; strain 0008200, 18 h): 0.5
growth (G), size [1, 3]: 0.5 mm
intensity (I) of coloration ([1]; strain 0008200, 24 h): 0.8
growth (G), size [1, 4]: 0.5 mm
intensity (I) of coloration ([1]; strain 0008200, >40 h): 3
growth (G), size [1, 5]: 0.5 mm
intensity (I) of coloration ([1]; strain 0008206, 18 h): 0.6
growth (G), size [1, 6]: 0.7 mm
intensity (I) of coloration ([1]; strain 0008206, 24 h): 0.8
growth (G), size [1, 7]: 0.7 mm
intensity (I) of coloration ([1]; strain 0008206, >40 h): 3
growth (G), size [1, 8]: 0.7 mm
intensity (I) of coloration ([1]; strain 0101060, 18 h): 2.7
growth (G), size [1, 9]: 0.4 mm
intensity (I) of coloration ([1]; strain 0101060, 24 h): 2.7
growth (G), size [1, 10]: 0.4 mm
intensity (I) of coloration ([1]; strain 0101060, >40 h): 4
growth (G), size [1, 11]: 0.5 mm
intensity (I) of coloration ([1]; strain 7611003, 18 h): 1
growth (G), size [1, 12]: 0.5 mm
intensity (I) of coloration ([1]; strain 7611003, 24 h): 2
growth (G), size [1, 13]: 0.7 mm
intensity (I) of coloration ([1]; strain 7611003, >40 h): 3
growth (G), size [1, 14]: 0.7 mm
growth (G), size [1, 15]: 0.5 mm
growth (G), size [1, 16]: 0.5 mm
intensity (I) of coloration ([1]; strain 7701031, >40 h): 2
growth (G), size [1, 17]: 0.8 mm
intensity (I) of coloration ([1]; strain 7702055, 18 h): 0.5
growth (G), size [1, 18]: 0.5 mm
intensity (I) of coloration ([1]; strain 7702055, 24 h): 0.6
growth (G), size [1, 19]: 0.8 mm
intensity (I) of coloration ([1]; strain 7702055, >40 h): 3
growth (G), size [1, 20]: 1 mm
intensity (I) of coloration ([1]; strain 8709013, 18 h): 0.5
growth (G), size [1, 21]: 0.4 mm
intensity (I) of coloration ([1]; strain 8709013, 24 h): 1.3
growth (G), size [1, 22]: 0.5 mm
intensity (I) of coloration ([1]; strain 8709013, >40 h): 2.7
growth (G), size [1, 23]: 0.7 mm
intensity (I) of coloration ([1]; strain 8904053, 18 h): 0.6
growth (G), size [1, 24]: 0.7 mm
intensity (I) of coloration ([1]; strain 8904053, 24 h): 0.6
growth (G), size [1, 25]: 0.7 mm
intensity (I) of coloration ([1]; strain 8904053, >40 h): 3
growth (G), size [1, 26]: 0.7 mm
number of strains detected [2, 27]: 2/8
number of strains detected [2, 28]: 8/8
number of strains detected [2, 29]: 7/8
number of strains detected [2, 30]: 8/8
number of strains detected [2, 31]: 7/8
number of strains detected [2, 32]: 8/8

Compound: 5-bromo-4-chloro-3-indolyl-N-methyl-α-D-glucopyranoside [GreenA-alpha-Glu]
intensity (I) of coloration ([1]; strain 0008200, 18 h): 0.5
growth (G), size [1, 3]: 0.7 mm
intensity (I) of coloration ([1]; strain 0008200, 24 h): 0.8
growth (G), size [1, 4]: 0.7 mm
intensity (I) of coloration ([1]; strain 0008200, >40 h): 2
growth (G), size [1, 5]: 0.7 mm
intensity (I) of coloration ([1]; strain 0008206, 18 h): 0.6
growth (G), size [1, 6]: 0.7 mm
intensity (I) of coloration ([1]; strain 0008206, 24 h): 1
growth (G), size [1, 7]: 0.7 mm
intensity (I) of coloration ([1]; strain 0008206, >40 h): 2
growth (G), size [1, 8]: 0.8 mm
intensity (I) of coloration ([1]; strain 0101060, 18 h): 0.8
growth (G), size [1, 9]: 0.3 mm
intensity (I) of coloration ([1]; strain 0101060, 24 h): 1.7
growth (G), size [1, 10]: 0.4 mm
intensity (I) of coloration ([1]; strain 0101060, >40 h): 3.5
growth (G), size [1, 11]: 0.5 mm
intensity (I) of coloration ([1]; strain 7611003, 18 h): 2
growth (G), size [1, 12]: 1 mm
intensity (I) of coloration ([1]; strain 7611003, 24 h): 2
growth (G), size [1, 13]: 1.3 mm
intensity (I) of coloration ([1]; strain 7611003, >40 h): 3
growth (G), size [1, 14]: 1.7 mm
growth (G), size [1, 15]: 0.5 mm
intensity (I) of coloration ([1]; strain 7701031, 24 h): 0.3
growth (G), size [1, 16]: 0.7 mm
intensity (I) of coloration ([1]; strain 7701031, >40 h): 0.8
growth (G), size [1, 17]: 1.5 mm
intensity (I) of coloration ([1]; strain 7702055, 18 h): 1
growth (G), size [1, 18]: 0.7 mm
intensity (I) of coloration ([1]; strain 7702055, 24 h): 2
growth (G), size [1, 19]: 0.8 mm
intensity (I) of coloration ([1]; strain 7702055, >40 h): 3
growth (G), size [1, 20]: 1.7 mm
intensity (I) of coloration ([1]; strain 8709013, 18 h): 0.5
growth (G), size [1, 21]: 0.4 mm
intensity (I) of coloration ([1]; strain 8709013, 24 h): 1
growth (G), size [1, 22]: 0.5 mm
intensity (I) of coloration ([1]; strain 8709013, >40 h): 2.7
growth (G), size [1, 23]: 0.7 mm
intensity (I) of coloration ([1]; strain 8904053, 18 h): 0.5
growth (G), size [1, 24]: 0.7 mm
intensity (I) of coloration ([1]; strain 8904053, 24 h): 0.8
growth (G), size [1, 25]: 0.7 mm
intensity (I) of coloration ([1]; strain 8904053, >40 h): 2.3
growth (G), size [1, 26]: 1 mm
number of strains detected [2, 27]: 6/8
number of strains detected [2, 28]: 8/8
number of strains detected [2, 29]: 7/8
number of strains detected [2, 30]: 8/8
number of strains detected [2, 31]: 7/8
number of strains detected [2, 32]: 7/8
